# Measurements as given in patent publication US20160279095A1, “USE OF NUTRITIONAL COMPOSITIONS INCLUDING NATURAL VITAMIN E, AND POLYUNSATURATED FATTY ACID” (ABBOTT LABORATORIES, priority 2013, published 2016).
# Tested on: Primary cortical neurons
# Experiment: DHA peroxidation in primary cortical neurons, MDA levels measured by LC-MS
# Assay type: cell-based, Sprague-Dawley rat
# Details: for MDA concentration (DHA peroxidation): by LCMS/MS
# Procedure: Primary cortical neurons from postnatal day 3-5 (P3-P5) Sprague-Dawley rat pup's brain were pretreated with/without natural vitamin E in the form of RRR-a-tocopherol (15 μM or 45 μM), and/or lutein (0.32 nM or 0.5 nM) individually and in combination for 12 hours. (Note that μM is used to refer to a micromolar concentration and nM is used to refer to a nanomolar concentration and concentrations refer to those reached in the test tubes containing the cortical neurons.) After 12 hours DHA (90 μM) was added for an additional 12 hours. After 12 hours samples were washed in PS and neurons were lysed. Peroxides generated from DHA and incorporated into the neuronal cell membrane were assessed by measuring the MDA levels using liquid chromatography-mass spectometry (LC-MS) method.
smiles,measurement,setting,value
"CC/C=C\C/C=C\C/C=C\C/C=C\C/C=C\C/C=C\CCC(=O)O [DHA, docosahexaenoic acid]",MDA concentration (DHA peroxidation),"DHA 90 μM for 12 hours, without either RRR alpha tocopherol or lutein",about 110
"Cc1c(C)c2c(c(C)c1O)CC[C@@](C)(CCC[C@H](C)CCC[C@H](C)CCCC(C)C)O2 [RRR alpha tocopherol, RRR-alpha tocopherol]",MDA concentration (DHA peroxidation),"15 μM RRR alpha tocopherol pretreatment 12 hours, then DHA 90 μM 12 hours",about 75%
same,MDA concentration (DHA peroxidation),"45 μM RRR alpha tocopherol pretreatment 12 hours, then DHA 90 μM 12 hours, p<0.001",about 57%
CC1=C[C@H](O)CC(C)(C)[C@H]1/C=C/C(C)=C/C=C/C(C)=C/C=C/C=C(C)/C=C/C=C(C)/C=C/C1=C(C)C[C@@H](O)CC1(C)C [lutein],effect on retarding DHA peroxidation,"lutein alone, without RRR alpha tocopherol, then DHA 90 μM",essentially no effect
